Molecules are shown by their SMILES. Positions of bridges follow the written chain, without caps; N, C: chain ends. Residues, ends and D or L forms follow the SMILES beside them.

The target of this assay is T1, human recombinant integrin α2I domain (rα2I) (Homo sapiens, UniProt P17301).
T1 construct: GST (glutathione S-transferase, pGEX2T) (N, cleaved yes); made in house; host or cells: E. coli BL21 (pJKα2I, pGEX2T backbone)
T1 sequence (P17301 153-368): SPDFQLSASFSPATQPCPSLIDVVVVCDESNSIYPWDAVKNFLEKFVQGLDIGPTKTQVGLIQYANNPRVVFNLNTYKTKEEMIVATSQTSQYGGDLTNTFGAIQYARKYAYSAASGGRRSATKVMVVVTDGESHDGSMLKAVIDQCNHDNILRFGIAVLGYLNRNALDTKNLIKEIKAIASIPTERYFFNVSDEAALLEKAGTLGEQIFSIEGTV
The format is binding. The procedure:
A 96-well immunoplate (Maxisorp, Nunc) was coated by exposing the surface of its well to 0.1 ml of PBS containing 5 μg/cm^2 of the plate surface, type I collagen (bovine dermal, Cellon), type IV collagen (Sigma), laminin-1 (purified from basement membranes of the Engelbreth-Holm-Swarm mouse tumor, Collaborative Research), fibronectin (human plasma fibronectin, Boehringer Mannheim) or 3.3 μg/ml echovirus-1 or echovirus-7 for 12 h at +4° C. Alternatively peptides and B. jararaca venom (Sigma) were coated at various concentrations on 96-well amine binding plates (Costar) according to the manufacturer's instructions.
Residual protein absorption sites on all wells were blocked with 0.1% heat inactivated bovine serum albumin in PBS for 1 h at +37° C. Echoviruses 1 (Farouk strain) and 7 (Wallace) were obtained from the ATCC. The purified viruses were diluted in PBS containing 0.5 mM MgCl2 and stored at -70° C. until used. Europium labeled rα2I was added at a concentration of 500 ng/ml in PBS, 2 mM MgCl2, 1 mg/ml BSA to the coated wells and incubated for 3 h at +37° C. Wells were then washed three times with PBS, 2mM MgCl2. 0.1 ml Delfia enhancement solution (Wallac) was added to each well and europium signal was measured with fluorometry (Model 1232 Delfia, Wallac). […]

As to `C[C@@H]1NC(=O)[C@H](CC(N)=O)NC(=O)[C@H](CC(=O)O)NC(=O)[C@H](Cc2c[nH]cn2)NC(=O)[C@H](CCCCN)NC(=O)[C@H](CCCCN)NC(=O)[C@H](CCCNC(=N)N)NC(=O)[C@H]([C@@H](C)O)NC(=O)[C@@H](N)CSSC[C@@H](C(=O)O)NC(=O)[C@H](CCC(N)=O)NC1=O` [229ox, CTRKKHDNAQC] (H-CTRKKHDNAQC-OH; disulfide 1-11), the “inhibition of rα2I binding to B. jararaca venom by peptide” value is given as “about 50%”.
